Experimental data reported in ChEMBL document CHEMBL6182880, “TCM theory-inspired discovery of DNJ-flavonoid conjugates as broad-spectrum anti-SARS-CoV-2 agents by primarily targeting ER-associated glycoprotein folding process” (Eur J Med Chem, 2025).

Experiments:
Assay type in all cases: functional, organism-based; call rule not given here
[1] = system: SARS-CoV-2; test: Antiviral activity against SARS CoV-2 pseudovirus transfected in HEK293 cells harboring pLenti-GFP-Luc assessed as inhibition of viral entry into HeLa-ACE2 cells treated for 12 hrs prior to media replacement and measured after 48 hrs by luciferase assay; details: Severe acute respiratory syndrome coronavirus 2, HeLa-ACE2
[2] = system: SARS-CoV-2; test: Antiviral activity against SARS CoV-2 pseudovirus transfected in HEK293 cells harboring pLenti-GFP-Luc assessed as inhibition of viral entry into HeLa-ACE2 cells incubated with cells for 1 to 2 hrs prior to viral infection and measured after 48 hrs by luciferase assay; details: Severe acute respiratory syndrome coronavirus 2, HeLa-ACE2
[3] = system: SARS-CoV-2; test: Antiviral activity against SARS CoV-2 pseudovirus transfected in HEK293 cells harboring pLenti-GFP-Luc assessed as inhibition of viral entry into HeLa-ACE2 cells treated 1 to 6 hrs post-infection and measured after 48 hrs by luciferase assay; details: Severe acute respiratory syndrome coronavirus 2
[4] = system: SARS-CoV-2; test: Antiviral activity against SARS CoV-2 pseudovirus transfected in HEK293 cells harboring pLenti-GFP-Luc assessed as inhibition of viral packing process treated from 12 to 48 hrs post-transfection by luciferase assay; details: Severe acute respiratory syndrome coronavirus 2, HeLa-ACE2
[5] = system: SARS-CoV-2; test: Antiviral activity against SARS CoV-2 pseudovirus transfected in HEK293 cells harboring pLenti-GFP-Luc assessed as inhibition of viral packing process by luciferase assay; details: Severe acute respiratory syndrome coronavirus 2; HeLa-ACE2; time 48.0 hrs

Structure (SMILES): O=c1cc(-c2ccc(O)c(O)c2)oc2cc(O)cc(OCCCCCCCCCCN3C[C@H](O)[C@@H](O)[C@H](O)[C@H]3CO)c12
- EC50 [1]: 5.13 µM
- EC50 [2]: 7.52 µM
- inhibition [3]: Not active; Delay Of Time Of Addition Exerted A Time-Dependent Decrease In Viral Entry Inhibition
- EC50 [4]: 7.52 µM
- inhibition [5]: Time-dependent-effect
